Measurements published in patent US20110311661A1, “Plant Extracts and Dermatological Uses Thereof” (priority 2003, published 2011).

Legend:
[1] = tested on: human skin fibroblasts; experiment: Inhibition of dermal contraction, fibroblast-populated collagen I gel; assay type: cell-based; details: positive control at 50 μM; collagen gels up to 7 days
Method: The skin model comprises human skin fibroblasts imbedded in a collagen I matrix and provides an in vitro representation of dermal contraction resulting from tractional forces generated by fibroblasts.
The ability of exemplary plant extracts to inhibit dermal contraction was evaluated on human skin fibroblasts (Cascade Biologics, Portland, Oreg.). The cells were imbedded in a collagen I matrix to create a derm-like environment. Fibroblasts were grown in complete M106 to 80% confluence. Free-floating fibroblast-populated collagen gels were prepared in 24-well plates. […] The mix was kept on ice until distribution. The derm-like gels were allowed to polymerize for 1 hour at 37° C. in a humidified 5% CO2 atmosphere. After incubation, the gels were detached from the wells. […] FBS at a final concentration of 10% was added to each well. The plate was incubated for a maximum of 7 days at 37° C. in a humidified 5% CO2 atmosphere. All assays were performed in duplicate. Contraction was measured beginning at day 3. Contracting gels were digitally photographed and the gel areas were calculated using ImagePro software.

[2] = tested on: human skin keratinocytes; experiment: IL-8 release ELISA; assay type: cell-based; details: positive control at 2.5 μM; 48 hours
Method: The amount of Interleukin-8 (IL-8) released after exposure of keratinocytes to a plant extract, as described below, can be used to quantify any possible irritation reaction to the extract.
IL-8 release was evaluated in human skin keratinocytes (Cascade Biologics, Portland, Oreg.) using the Quantikine hIL-8 ELISA kit (R&D Systems, Minneapolis, Minn.). Keratinocytes were first grown in a 96-well plate using the complete M154 (M154+HKGS from Cascade Biologics). This media was also used as control. Phorbol 12-myristate 13-acetate (PMA) (Sigma-Aldrich Canada, Oakville, Ontario) at a concentration of 2.5 μM was used as a positive control. All tested plant extracts and the controls were diluted in complete M154 at a non-cytotoxic concentration (i.e. the concentration that provided 100% viability of keratinocytes as shown in Table 10). Cells were seeded into 96-well plates at a concentration of 8×10^3 cells/well in complete M154 media. Plates were incubated for 48 hours at 37° C. in a humidified 5% CO2 atmosphere. After incubation, the medium was removed and 200 μl of sample was added to the wells (all in duplicate). […]
After incubation, each well was washed four times with wash buffer. […] The plate was then gently mixed and the absorbance read at 450 nm on the Spectrafluor Plus plate reader (Tecan). The reading was taken within 15 minutes following addition of the stop solution. […]

**Q.** With `CNC(=O)[C@H](Cc1c[nH]c2ccccc12)NC(=O)[C@@H](CC(=O)NO)CC(C)C` [GM6001] as the compound, how does the inhibition of contraction [1] read?
**A.** limited, but not complete, inhibition of contraction

**Q.** With `CCCCCCCCCCCCCC(=O)O[C@@H]1[C@@H](C)[C@@]2(O)[C@@H](C=C(CO)C[C@]3(O)C(=O)C(C)=C[C@@H]23)[C@@H]2C(C)(C)[C@]12OC(C)=O` [PMA, Phorbol 12-myristate 13-acetate] as the compound, how does the IL-8 release [2] read?
**A.** highest level of IL-8 release
